{"source": "patent US20050090496A1", "about": "“Sulphonyl compounds with 5-ht6 receptor affinity” (priority 2002, published 2005)", "target": "T1, human cloned 5-HT6 receptors (Homo sapiens, UniProt P50406)", "T1 construct": "expressed in transfected cells", "T1 sequence (P50406 whole entry)": "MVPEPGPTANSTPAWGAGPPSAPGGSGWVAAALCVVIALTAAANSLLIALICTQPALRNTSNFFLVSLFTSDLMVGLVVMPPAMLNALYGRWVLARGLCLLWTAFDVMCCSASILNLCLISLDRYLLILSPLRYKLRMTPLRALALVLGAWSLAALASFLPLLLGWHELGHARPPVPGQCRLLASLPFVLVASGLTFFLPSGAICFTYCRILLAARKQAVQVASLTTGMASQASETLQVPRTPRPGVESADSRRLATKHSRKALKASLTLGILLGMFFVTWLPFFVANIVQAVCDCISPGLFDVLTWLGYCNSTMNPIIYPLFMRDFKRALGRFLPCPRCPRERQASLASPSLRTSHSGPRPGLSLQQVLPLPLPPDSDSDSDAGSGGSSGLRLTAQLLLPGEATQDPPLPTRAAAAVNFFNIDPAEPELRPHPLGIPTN", "experiment": "affinity for the 5-HT6 receptor (procedures of WO98/27081)", "assay_type": "binding", "description": "Compounds can be tested following the procedures outlined in WO98/27081.", "note": "pKi: −log10 of the molar value. Where a name gives a salt, the structure may show the parent alone."}
{"smiles": "O=S(=O)(c1cccc(Cl)c1)n1ccc2c(N3CCNCC3)ccnc21", "note": "[Example E1, 4[1-(3-Chlorobenzenesulfonyl)-1-pyrrolo[2,3-b]pyridin-4-yl]-piperazine hydrochloride]", "values": [{"measurement": "pKi", "value": "> 8.00"}]}
